Results taken from PubChem BioAssay AID1259407 (Chemical Carcinogenesis Research Information System (CCRIS), 2018).
The source made the active and inactive calls. How the calls were made is not given here.

Test system: CCRIS mutagenicity, Ames/micronucleus/aberration tests
Experiment: CCRIS mutagenicity studies
[1] = Test System: AMES SALMONELLA TYPHIMURIUM, Strain/Indicator: TA98, Metabolic Activation: NONE, Method: STANDARD PLATE
[2] = Test System: AMES SALMONELLA TYPHIMURIUM, Strain/Indicator: TA100, Metabolic Activation: NONE, Method: STANDARD PLATE
[3] = Test System: AMES SALMONELLA TYPHIMURIUM, Strain/Indicator: TA100, Metabolic Activation: RAT, LIVER, S-9, AROCLOR 1254, Method: STANDARD PLATE

Nc1ccccc1[N+](=O)[O-]
mutagenic call (End Point: IN VITRO CHROMOSOMAL ABERRATIONS, Test System: CHL CELLS, Metabolic Activation: RAT, LIVER, S-9, SODIUM PHENOBARBITAL AND 5,6-BENZOFLAVONE): active; positive (structural changes) | mutagenic call (End Point: IN VITRO MICRONUCLEUS, Test System: CHL/IU CELLS, Metabolic Activation: NONE): inactive; negative | mutagenic call (Test System: AMES SALMONELLA TYPHIMURIUM, Strain/Indicator: TA97, Metabolic Activation: NONE): inactive; negative | mutagenic call (Test System: AMES SALMONELLA TYPHIMURIUM, Strain/Indicator: TA97, Metabolic Activation: RAT, LIVER, S-9, AROCLOR 1254): inactive; negative | mutagenic call (Test System: AMES SALMONELLA TYPHIMURIUM, Strain/Indicator: TA98, Metabolic Activation: HAMSTER, LIVER, S-9, AROCLOR 1254, FLAVIN MONONUCLEOTIDE, Method: PREINCUBATION): active; positive | mutagenic call (Test System: AMES SALMONELLA TYPHIMURIUM, Strain/Indicator: TA98, Metabolic Activation: HAMSTER, LIVER, S-9, AROCLOR 1254, Method: PREINCUBATION): inactive; negative | mutagenic call (Test System: AMES SALMONELLA TYPHIMURIUM, Strain/Indicator: TA98, Metabolic Activation: NONE): inactive; negative | mutagenic call (Test System: AMES SALMONELLA TYPHIMURIUM, Strain/Indicator: TA98, Metabolic Activation: NONE, Method: PREINCUBATION): inactive; negative | mutagenic call [1]: inactive; negative | mutagenic call (Test System: AMES SALMONELLA TYPHIMURIUM, Strain/Indicator: TA98, Metabolic Activation: RAT, LIVER, S-9, AROCLOR 1254): inactive; negative | mutagenic call (Test System: AMES SALMONELLA TYPHIMURIUM, Strain/Indicator: TA98, Metabolic Activation: RAT, LIVER, S-9, AROCLOR 1254, FLAVIN MONONUCLEOTIDE, Method: PREINCUBATION): inactive; negative | mutagenic call (Test System: AMES SALMONELLA TYPHIMURIUM, Strain/Indicator: TA98, Metabolic Activation: RAT, LIVER, S-9, AROCLOR 1254, Method: STANDARD PLATE): inactive; negative | mutagenic call (Test System: AMES SALMONELLA TYPHIMURIUM, Strain/Indicator: TA98, Metabolic Activation: RAT, LIVER, S-9, KANECHLOR 500, Method: PREINCUBATION): inactive; negative | mutagenic call (Test System: AMES SALMONELLA TYPHIMURIUM, Strain/Indicator: TA98, Method: PREINCUBATION): inactive; negative | mutagenic call (Test System: AMES SALMONELLA TYPHIMURIUM, Strain/Indicator: TA100, Metabolic Activation: NONE): inactive; negative | mutagenic call (Test System: AMES SALMONELLA TYPHIMURIUM, Strain/Indicator: TA100, Metabolic Activation: NONE, Method: PREINCUBATION): inactive; negative | mutagenic call [2]: inactive; negative | mutagenic call (Test System: AMES SALMONELLA TYPHIMURIUM, Strain/Indicator: TA100, Metabolic Activation: RAT, LIVER, S-9, AROCLOR 1254): inactive; negative | mutagenic call [3]: inactive; negative | mutagenic call (Test System: AMES SALMONELLA TYPHIMURIUM, Strain/Indicator: TA100, Metabolic Activation: RAT, LIVER, S-9, KANECHLOR 500, Method: PREINCUBATION): inactive; negative | mutagenic call (Test System: AMES SALMONELLA TYPHIMURIUM, Strain/Indicator: TA100, Method: PREINCUBATION): inactive; negative | mutagenic call (Test System: AMES SALMONELLA TYPHIMURIUM, Strain/Indicator: TA102, Metabolic Activation: NONE): inactive; negative | mutagenic call (Test System: AMES SALMONELLA TYPHIMURIUM, Strain/Indicator: TA102, Metabolic Activation: RAT, LIVER, S-9, AROCLOR 1254): inactive; negative | mutagenic call (Test System: AMES SALMONELLA TYPHIMURIUM, Strain/Indicator: TA1535, Metabolic Activation: NONE, Method: PREINCUBATION): inactive; negative | mutagenic call (Test System: AMES SALMONELLA TYPHIMURIUM, Strain/Indicator: TA1535, Metabolic Activation: NONE, Method: STANDARD PLATE): inactive; negative | mutagenic call (Test System: AMES SALMONELLA TYPHIMURIUM, Strain/Indicator: TA1535, Metabolic Activation: RAT, LIVER, S-9, AROCLOR 1254, Method: STANDARD PLATE): inactive; negative | mutagenic call (Test System: AMES SALMONELLA TYPHIMURIUM, Strain/Indicator: TA1535, Method: PREINCUBATION): inactive; negative | mutagenic call (Test System: AMES SALMONELLA TYPHIMURIUM, Strain/Indicator: TA1537, Metabolic Activation: NONE, Method: PREINCUBATION): inactive; negative | mutagenic call (Test System: AMES SALMONELLA TYPHIMURIUM, Strain/Indicator: TA1537, Metabolic Activation: NONE, Method: STANDARD PLATE): inactive; negative | mutagenic call (Test System: AMES SALMONELLA TYPHIMURIUM, Strain/Indicator: TA1537, Metabolic Activation: RAT, LIVER, S-9, AROCLOR 1254, Method: STANDARD PLATE): inactive; negative | mutagenic call (Test System: AMES SALMONELLA TYPHIMURIUM, Strain/Indicator: TA1537, Method: PREINCUBATION): inactive; negative | mutagenic call (Test System: AMES SALMONELLA TYPHIMURIUM, Strain/Indicator: TA1538, Metabolic Activation: NONE, Method: PREINCUBATION): inactive; negative | mutagenic call (Test System: AMES SALMONELLA TYPHIMURIUM, Strain/Indicator: TA1538, Metabolic Activation: NONE, Method: STANDARD PLATE): inactive; negative | mutagenic call (Test System: AMES SALMONELLA TYPHIMURIUM, Strain/Indicator: TA1538, Metabolic Activation: RAT, LIVER, S-9, AROCLOR 1254, Method: STANDARD PLATE): inactive; negative | mutagenic call (Test System: AMES SALMONELLA TYPHIMURIUM, Strain/Indicator: TA1538, Method: PREINCUBATION): inactive; negative | mutagenic call (Test System: UDS RODENT HEPATOCYTES, Strain/Indicator: THY INCORP (NON-S-PHASE), Metabolic Activation: NONE, Method: AUTORADIOGRAPHY): inactive; negative

O[C@@H]([C@H](O)[C@H](O)CBr)[C@H](O)CBr
mutagenic call [1]: inactive; negative | mutagenic call [2]: inactive; negative | mutagenic call (Test System: AMES SALMONELLA TYPHIMURIUM, Strain/Indicator: TA100, Metabolic Activation: S-9, Method: STANDARD PLATE): active; positive | mutagenic call (Test System: E. COLI, Strain/Indicator: WP2 (HCR), Metabolic Activation: NONE, Method: STANDARD PLATE): inactive; negative | mutagenic call (Test System: E. COLI, Strain/Indicator: WP2 (HCR), Metabolic Activation: S-9, Method: STANDARD PLATE): active; positive

c1ccc(CNc2ncnc3nc[nH]c23)cc1
mutagenic call [1]: inactive; negative | mutagenic call (Test System: AMES SALMONELLA TYPHIMURIUM, Strain/Indicator: TA98, Metabolic Activation: RAT LIVER S-9, 3-METHYLCHOLANTHRENE AND PHENOBARBITAL, Method: STANDARD PLATE): inactive; negative | mutagenic call (Test System: AMES SALMONELLA TYPHIMURIUM, Strain/Indicator: TA98, Metabolic Activation: RAT, LIVER, S-9, AROCLOR, Method: STANDARD PLATE): inactive; negative | mutagenic call [2]: inactive; negative | mutagenic call (Test System: AMES SALMONELLA TYPHIMURIUM, Strain/Indicator: TA100, Metabolic Activation: RAT LIVER S-9, 3-METHYLCHOLANTHRENE AND PHENOBARBITAL, Method: STANDARD PLATE): inactive; negative | mutagenic call (Test System: AMES SALMONELLA TYPHIMURIUM, Strain/Indicator: TA100, Metabolic Activation: RAT, LIVER, S-9, AROCLOR, Method: STANDARD PLATE): inactive; negative | mutagenic call (Test System: CHINESE HAMSTER V-79, Strain/Indicator: V-79/6-THIOGUANINE (HGPRT), Metabolic Activation: NONE, Method: STANDARD PLATE): inactive; negative

OC1C=C2c3cc4ccccc4cc3-c3cccc(c32)C1O (centres undefined)
mutagenic call [3]: active; positive
